The target of assay [1] is T1, Endonuclease 8-like 2 (Homo sapiens) (UniProt Q969S2).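 Also: fluorescence at 594 nm reports NEIL2 cutting and release of a quenched double-stranded DNA oligo substrate, reduced signal read as inhibition.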
T1 sequence (whole entry): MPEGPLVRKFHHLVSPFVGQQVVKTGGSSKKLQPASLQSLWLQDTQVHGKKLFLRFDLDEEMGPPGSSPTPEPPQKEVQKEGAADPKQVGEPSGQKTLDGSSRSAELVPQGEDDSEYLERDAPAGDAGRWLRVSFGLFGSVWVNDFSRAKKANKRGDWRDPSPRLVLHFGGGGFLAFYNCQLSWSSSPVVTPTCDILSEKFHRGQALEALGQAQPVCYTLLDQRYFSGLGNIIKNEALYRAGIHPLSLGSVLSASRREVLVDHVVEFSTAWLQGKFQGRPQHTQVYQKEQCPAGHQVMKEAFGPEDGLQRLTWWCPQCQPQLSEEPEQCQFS
Particulars: Compound Concentration 10.0 uM, Hit No.
Description: Inhibition of NEIL2 by quantifying inhibition of NEIL2-mediated cleavage and dissociation of quenched duplex DNA oligonucleotides, measured as fluorescence at 594 nm.

The target in assay [2] is Endonuclease 8-like 1 (Homo sapiens) (UniProt Q96FI4). The note with it: Hit No.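 Also: fluorescence at 594 nm from quenched duplex DNA oligonucleotides released by NEIL1 cleavage and strand separation, reported as reduction of this enzyme activity.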
Endonuclease 8-like 1 (Homo sapiens), sequence (Q96FI4 whole entry): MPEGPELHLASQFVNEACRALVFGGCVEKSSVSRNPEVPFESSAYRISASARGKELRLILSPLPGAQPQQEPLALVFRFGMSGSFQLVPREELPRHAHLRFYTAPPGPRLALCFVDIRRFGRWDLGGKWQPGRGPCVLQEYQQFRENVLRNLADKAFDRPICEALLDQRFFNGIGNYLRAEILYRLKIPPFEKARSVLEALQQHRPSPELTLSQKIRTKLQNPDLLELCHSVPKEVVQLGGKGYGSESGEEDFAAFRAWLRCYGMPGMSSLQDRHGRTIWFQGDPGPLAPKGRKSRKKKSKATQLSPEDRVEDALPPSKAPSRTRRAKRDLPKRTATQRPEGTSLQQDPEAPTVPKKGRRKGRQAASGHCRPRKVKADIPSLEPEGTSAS
Description: Inhibition of NEIL1 by quantifying inhibition of NEIL1-mediated cleavage and dissociation of quenched duplex DNA oligonucleotides, measured as fluorescence at 594 nm.
Assay [3] deals with Uracil-DNA glycosylase (Homo sapiens) (UniProt P13051). Particulars: Hit No.
Uracil-DNA glycosylase (Homo sapiens), sequence (P13051 whole entry): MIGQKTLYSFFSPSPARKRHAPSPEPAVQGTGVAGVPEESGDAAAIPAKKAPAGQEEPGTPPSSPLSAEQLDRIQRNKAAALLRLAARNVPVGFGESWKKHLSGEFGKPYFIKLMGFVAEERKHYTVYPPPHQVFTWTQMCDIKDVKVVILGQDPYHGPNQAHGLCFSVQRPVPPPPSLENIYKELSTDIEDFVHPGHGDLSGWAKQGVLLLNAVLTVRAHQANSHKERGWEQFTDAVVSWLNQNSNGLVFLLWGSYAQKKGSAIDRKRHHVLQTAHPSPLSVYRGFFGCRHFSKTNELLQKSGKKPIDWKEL
Description: Inhibition of UNG by quantifying inhibition of UNG-mediated cleavage and dissociation of quenched duplex DNA oligonucleotides, measured as fluorescence at 594 nm. To generate a functional strand incision and increase turn-over this assay is coupled to APE1.
Assay [4] has as its target N-glycosylase/DNA lyase (Homo sapiens) (UniProt O15527). Particulars: Compound Concentration 10.0 uM, Hit No.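 Also: OGG1 cleavage of a quenched duplex DNA oligonucleotide, coupled to APE1 for strand incision, read as fluorescence at 594 nm.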
Description: Inhibition of OGG1 by quantifying inhibition of OGG1-mediated cleavage and dissociation of quenched duplex DNA oligonucleotides, measured as fluorescence at 594 nm. To generate a functional strand incision and increase turn-over this assay is coupled to APE1.
The target in assay [5] is G/T mismatch-specific thymine DNA glycosylase (Homo sapiens) (UniProt Q13569). Particulars: Hit No.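 Also: human TDG cleavage of quenched duplex DNA oligonucleotides coupled to APE1, strand release read as fluorescence at 594 nm, inhibition of TDG activity.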
G/T mismatch-specific thymine DNA glycosylase (Homo sapiens), sequence (Q13569 whole entry): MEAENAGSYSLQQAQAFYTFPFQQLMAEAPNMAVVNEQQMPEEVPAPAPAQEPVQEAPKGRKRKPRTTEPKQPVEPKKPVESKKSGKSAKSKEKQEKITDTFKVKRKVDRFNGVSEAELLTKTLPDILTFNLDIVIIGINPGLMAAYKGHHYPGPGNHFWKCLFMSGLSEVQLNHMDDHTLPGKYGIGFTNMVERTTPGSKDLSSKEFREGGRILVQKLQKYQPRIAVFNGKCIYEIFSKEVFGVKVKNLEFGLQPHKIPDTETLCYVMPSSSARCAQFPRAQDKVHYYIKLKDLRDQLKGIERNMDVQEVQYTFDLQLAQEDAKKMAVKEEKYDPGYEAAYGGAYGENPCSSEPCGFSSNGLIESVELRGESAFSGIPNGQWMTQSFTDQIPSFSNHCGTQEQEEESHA
Description: Inhibition of TDG by quantifying inhibition of TDG-mediated cleavage and dissociation of quenched duplex DNA oligonucleotides, measured as fluorescence at 594 nm. To generate a functional strand incision and increase turn-over this assay is coupled to APE1.
For assay [6], the target named is T2, Single-strand selective monofunctional uracil DNA glycosylase (Homo sapiens) (UniProt Q53HV7).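 Also: enzymatic SMUG1 assay coupled with APE1, reading fluorescence at 594 nm released when a quenched double-stranded DNA oligonucleotide substrate is cleaved and separated.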
T2 sequence (whole entry): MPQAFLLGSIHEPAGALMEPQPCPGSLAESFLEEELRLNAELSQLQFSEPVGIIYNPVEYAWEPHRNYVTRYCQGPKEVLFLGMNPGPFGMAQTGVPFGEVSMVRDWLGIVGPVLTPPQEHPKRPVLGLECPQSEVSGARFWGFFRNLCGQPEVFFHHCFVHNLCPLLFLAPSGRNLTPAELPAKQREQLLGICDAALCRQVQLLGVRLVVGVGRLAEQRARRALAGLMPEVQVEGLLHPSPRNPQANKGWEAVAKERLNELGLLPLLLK
The note with it: Compound Concentration 10.0 uM, Hit No.
Description: Inhibition of SMUG1 by quantifying inhibition of SMUG1-mediated cleavage and dissociation of quenched duplex DNA oligonucleotides, measured as fluorescence at 594 nm. To generate a functional strand incision and increase turn-over this assay is coupled to APE1.

Assay [7] addresses Methyl-CpG-binding domain protein 4 (Homo sapiens) (UniProt O95243). Particulars: Hit No.
Description: Inhibition of MBD4 by quantifying inhibition of MBD4-mediated cleavage and dissociation of quenched duplex DNA oligonucleotides, measured as fluorescence at 594 nm. To generate a functional strand incision and increase turn-over this assay is coupled to APE1.

Where a SMILES comes first, the peptide text is derived from it. Bridges are numbered along the chain shown (N, C = ends). [ ]: non-standard residue; d: D form. Orn = NCCC[C@H](N)C(=O)O; Mpa = O=C(O)CCS

Methyl-CpG-binding domain protein 4 (Homo sapiens), sequence (O95243 whole entry, the tested form may be a part): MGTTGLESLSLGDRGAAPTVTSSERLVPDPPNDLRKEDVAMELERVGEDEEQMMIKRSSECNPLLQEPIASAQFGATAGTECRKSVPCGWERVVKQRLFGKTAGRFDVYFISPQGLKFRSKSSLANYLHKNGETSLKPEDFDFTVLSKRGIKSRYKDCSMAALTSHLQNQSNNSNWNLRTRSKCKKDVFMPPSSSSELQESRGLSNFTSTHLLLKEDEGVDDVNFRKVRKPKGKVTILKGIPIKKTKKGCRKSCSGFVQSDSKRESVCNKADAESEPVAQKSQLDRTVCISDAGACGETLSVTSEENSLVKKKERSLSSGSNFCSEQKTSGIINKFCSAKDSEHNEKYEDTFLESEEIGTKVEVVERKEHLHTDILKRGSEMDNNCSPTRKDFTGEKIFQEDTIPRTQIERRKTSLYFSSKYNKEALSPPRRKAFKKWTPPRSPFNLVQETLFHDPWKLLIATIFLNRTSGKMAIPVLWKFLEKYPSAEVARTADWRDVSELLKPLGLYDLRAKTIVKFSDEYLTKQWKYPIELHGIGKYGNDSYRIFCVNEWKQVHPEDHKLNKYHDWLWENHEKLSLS
N-glycosylase/DNA lyase (Homo sapiens), sequence (O15527 whole entry): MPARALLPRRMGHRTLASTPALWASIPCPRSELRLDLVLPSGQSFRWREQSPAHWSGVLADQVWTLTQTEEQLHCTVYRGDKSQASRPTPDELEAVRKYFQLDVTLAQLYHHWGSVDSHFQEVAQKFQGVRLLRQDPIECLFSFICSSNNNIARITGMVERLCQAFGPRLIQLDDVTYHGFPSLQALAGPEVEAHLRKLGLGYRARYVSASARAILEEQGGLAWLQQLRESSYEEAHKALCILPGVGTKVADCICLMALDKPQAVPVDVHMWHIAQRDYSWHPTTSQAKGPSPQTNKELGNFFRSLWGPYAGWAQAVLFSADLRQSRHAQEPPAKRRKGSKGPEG

The term inhibition denotes the change of the read-out against control, counted positive when it falls. With `CN1C2CCC1CC(OC(c1ccc(F)cc1)c1ccc(F)cc1)C2` (stereo not drawn), the inhibition in assay [1] was -4.23%; in assay [2] (Compound Concentration 10.0 uM), 1.28%; in assay [3] (Compound Concentration 10.0 uM), -4.51%.

As for `CCCCCCCCCCCCCCCCOC[C@H](COP(=O)([O-])OCC[N+](C)(C)C)OC(C)=O`, the inhibition was -9.72% in assay [1], -4.5% in assay [2] (Compound Concentration 10.0 uM), -5.53% in assay [3] (Compound Concentration 10.0 uM) and 31.6% in assay [4].

`Nc1ccc(C(=O)Nc2cccc(-c3nc(N4CCOCC4)c4oc5ncccc5c4n3)c2)cn1`: the inhibition in assay [2] (Compound Concentration 10.0 uM) is -5.94%; in assay [5] (Compound Concentration 10.0 uM), 7.37%; in assay [6], 9.56%; in assay [7] (Compound Concentration 10.0 uM) it was -6.46%; in assay [3] (Compound Concentration 10.0 uM), 2.33%; in assay [4] it was 23%.

As to `O=C(c1ccc(F)c(F)c1Nc1ccc(I)cc1F)N1CC(O)([C@@H]2CCCCN2)C1`, the inhibition in assay [5] (Compound Concentration 10.0 uM) turned out to be 45%; in assay [6] it was 13.1%; in assay [7] (Compound Concentration 10.0 uM), 21.9%; in assay [3] (Compound Concentration 10.0 uM), 7.28%.

Take `Cc1nc2sccn2c(=O)c1CCN1CCC(=C(c2ccc(F)cc2)c2ccc(F)cc2)CC1`: the inhibition was 7.75% in assay [1]; -4.65% in assay [2] (Compound Concentration 10.0 uM); 20.8% in assay [5] (Compound Concentration 10.0 uM); -6.91% in assay [6]; 4.32% in assay [4].

On to `c1cc(OCCCN2CCCCC2)ccc1CN1CCCCC1`, for which the inhibition is -0.733% in assay [1], -2.58% in assay [2] (Compound Concentration 10.0 uM), 13.9% in assay [5] (Compound Concentration 10.0 uM) and -9.64% in assay [4].

Turning to `Cc1ccc(-c2ccc3c(ccc4sc5c(c43)NCC(C)NC5=O)n2)cn1` (stereo not drawn), the inhibition in assay [2] (Compound Concentration 10.0 uM) was -2.5%; in assay [5] (Compound Concentration 10.0 uM), 25.8%; in assay [6], 6.89%; in assay [4] it was -7.16%.

`Cc1c(C(=O)O)cc(-c2ccc(C3CCNCC3)cc2)c2ccc(-c3ccc(C(F)(F)F)cc3)cc12`: the inhibition in assay [1] was -4.83%; in assay [2] (Compound Concentration 10.0 uM) it was -6.8%; in assay [5] (Compound Concentration 10.0 uM), 44.3%; in assay [6] it was 4.5%; in assay [3] (Compound Concentration 10.0 uM) it was 3.66%; in assay [4], 11.4%.

`Cc1nc(-c2ccc(-c3ccc(C(=O)N4CCc5cc6c(cc54)C4(CCN(C)CC4)CO6)cc3)c(C)c2)no1`: the inhibition in assay [1] was -3.48%; in assay [2] (Compound Concentration 10.0 uM) it was -7.62%; in assay [5] (Compound Concentration 10.0 uM), -5.26%; in assay [7] (Compound Concentration 10.0 uM) it was 2.3%.

For the compound `CC[C@H]1OC(=O)[C@H](C)[C@@H](O[C@H]2C[C@@](C)(OC)[C@@H](O)[C@H](C)O2)[C@H](C)[C@@H](O[C@@H]2O[C@H](C)C[C@H](N(C)C)[C@H]2O)[C@@]2(C)CC(C)=C(O2)[C@H](C)[C@@H](O)[C@]1(C)O`, the inhibition in assay [1] is 4.76%; in assay [2] (Compound Concentration 10.0 uM) it was 3.06%; in assay [5] (Compound Concentration 10.0 uM), 0.145%; in assay [6], -6.48%.

Turning to `N#Cc1ccc2[nH]cc(CCCCN3CCN(c4ccc5oc(C(N)=O)cc5c4)CC3)c2c1`, the inhibition in assay [2] (Compound Concentration 10.0 uM) was 14.2%; in assay [5] (Compound Concentration 10.0 uM) it was -5.72%; in assay [6] it was 10.3%; in assay [3] (Compound Concentration 10.0 uM), -7.29%; in assay [4], -2.53%.

As to `O=S(=O)(c1ccccc1)c1cnc2c(N3CCNCC3)cccc2c1`, the inhibition in assay [1] was -5.97%; in assay [2] (Compound Concentration 10.0 uM), 6.47%; in assay [6], -2.7%; in assay [3] (Compound Concentration 10.0 uM) it was -8.69%; in assay [4] it was -2.8%.

With `Cc1ccc2c(c1)c1c(n2CCc2ccc(C)nc2)CCN(C)C1`, the inhibition in assay [1] was 3.01%; in assay [2] (Compound Concentration 10.0 uM) it was -8.95%; in assay [5] (Compound Concentration 10.0 uM), -5.76%; in assay [6], -3.57%.

For the compound `Cc1ccc(NC(=O)Nc2cc(C(F)(F)F)ccc2F)cc1Nc1ccc2c(c1)NC(=O)/C2=C\c1ccc[nH]1`, the inhibition in assay [2] (Compound Concentration 1.0 uM) was -7.79%; in assay [5] (Compound Concentration 1.0 uM), 24.1%; in assay [7] (Compound Concentration 1.0 uM), -5.4%; in assay [3] (Compound Concentration 1.0 uM), -3.3%.

For the compound `COc1cccc(OC)c1-c1cc(C(=O)NC2(C(=O)O)C3CC4CC(C3)CC2C4)nn1-c1ccc(C(=O)N(C)CCCN(C)C)cc1C(C)C` (stereo not drawn), the inhibition is 7.25% in assay [1]; 2.02% in assay [2] (Compound Concentration 10.0 uM); 18.3% in assay [5] (Compound Concentration 10.0 uM); 10.5% in assay [7] (Compound Concentration 10.0 uM); -7.25% in assay [3] (Compound Concentration 10.0 uM); 3.59% in assay [4].

For `CCOc1ccn(-c2ccc(F)cc2)c(=O)c1C(=O)Nc1ccc(Oc2ccnc(N)c2Cl)c(F)c1`, the inhibition is 6.08% in assay [2] (Compound Concentration 10.0 uM); 59.2% in assay [5] (Compound Concentration 10.0 uM); 30.4% in assay [6]; 6.57% in assay [3] (Compound Concentration 10.0 uM); -7.89% in assay [4].

Turning to `C=CC(=O)N1CCC([C@@H]2CCNc3c(C(N)=O)c(-c4ccc(Oc5ccccc5)cc4)nn32)CC1`, the inhibition was -8.45% in assay [2] (Compound Concentration 10.0 uM); 49.9% in assay [5] (Compound Concentration 10.0 uM); 20.1% in assay [6]; -0.527% in assay [3] (Compound Concentration 10.0 uM); 6.47% in assay [4].

In the case of `C[C@@H]1CN(Cc2ccc(F)cc2)CCN1C(=O)COc1ccc(Cl)cc1NC(N)=O`, the inhibition in assay [1] is 1.76%; in assay [2] (Compound Concentration 10.0 uM), 8.25%; in assay [5] (Compound Concentration 10.0 uM), -7.21%; in assay [6] it was -3.18%; in assay [7] (Compound Concentration 10.0 uM), -0.315%.

For `CCn1c(CNC(=O)c2nc(Cl)cnc2N)[n+](CC)c2ccc(C(=O)N(C)CCN(C)C)cc21`, the inhibition in assay [2] (Compound Concentration 10.0 uM) is -5.14%; in assay [5] (Compound Concentration 10.0 uM), 96.8%; in assay [6], 12.7%; in assay [7] (Compound Concentration 10.0 uM) it was 53.4%; in assay [3] (Compound Concentration 10.0 uM) it was 2.92%; in assay [4], 14.2%.

On to `O=C(N[C@@H]1CC[C@@H](c2cccc(F)c2F)CN(CC(F)(F)F)C1=O)N1CCC(n2c(=O)[nH]c3ncccc32)CC1`, for which the inhibition is 4.76% in assay [1], -5.1% in assay [2] (Compound Concentration 10.0 uM), 0.452% in assay [5] (Compound Concentration 10.0 uM) and -8.48% in assay [4].

Take `Cn1c(-c2csc(C3CCN(CC4=NC5N=CC=CC5N4)CC3)n2)nc2ccccc21` (stereo not drawn): the inhibition is -5.34% in assay [1]; -1.5% in assay [2] (Compound Concentration 10.0 uM); 20.6% in assay [5] (Compound Concentration 10.0 uM); -3.01% in assay [7] (Compound Concentration 10.0 uM); -1.15% in assay [4].

In the case of `Clc1ccc(CCCOCCCN2CCCCC2)cc1`, the inhibition was -5.97% in assay [1]; -3.47% in assay [2] (Compound Concentration 10.0 uM); 8.64% in assay [5] (Compound Concentration 10.0 uM); -0.857% in assay [6]; -8.48% in assay [3] (Compound Concentration 10.0 uM).

For `O=C(Cc1ccc(Cl)c(Cl)c1)N1CCCC[C@H]1CN1CCCC1`, the inhibition was -2.48% in assay [1]; -3.91% in assay [2] (Compound Concentration 10.0 uM); -3.13% in assay [6]; -9.61% in assay [3] (Compound Concentration 10.0 uM); 2.1% in assay [4].

As to `NC(=O)[C@@H]1CCCN1C(=O)[C@H](Cc1c[nH]cn1)NC(=O)[C@@H]1CCC(=O)N1`, the inhibition was 12.7% in assay [1]; -9.1% in assay [2] (Compound Concentration 10.0 uM); 10.8% in assay [5] (Compound Concentration 10.0 uM); -2.65% in assay [6]; -3.57% in assay [7] (Compound Concentration 10.0 uM); -2.75% in assay [4].

Take `COc1cc(N2CCC(O)CC2)ccc1Nc1cc(Nc2ccccc2S(=O)(=O)C(C)C)c2cc[nH]c2n1`: the inhibition turned out to be 52.6% in assay [5] (Compound Concentration 10.0 uM); 4.55% in assay [6]; 13.6% in assay [7] (Compound Concentration 10.0 uM); 3.96% in assay [3] (Compound Concentration 10.0 uM); 21.1% in assay [4].

As to `CC(C)COc1ccc(CNC(=O)N(Cc2ccc(F)cc2)C2CCN(C)CC2)cc1`, the inhibition is 8% in assay [1], 2.32% in assay [2] (Compound Concentration 10.0 uM), -0.163% in assay [5] (Compound Concentration 10.0 uM) and -7.83% in assay [4].

For `Cc1cc2c(-c3ccco3)cnc(N[C@H]3CCN(C)C[C@@H]3C(=O)NC3CCCCC3)c2[nH]c1=O`, the inhibition in assay [1] was -2.27%; in assay [2] (Compound Concentration 10.0 uM), 0.316%; in assay [5] (Compound Concentration 10.0 uM) it was 22.3%; in assay [7] (Compound Concentration 10.0 uM), 29.8%; in assay [3] (Compound Concentration 10.0 uM), -1.62%.

For the compound `N=C(N)SCCc1c[nH]cn1`, the inhibition is -8.06% in assay [2] (Compound Concentration 10.0 uM); -1.52% in assay [5] (Compound Concentration 10.0 uM); -7.4% in assay [6]; 11.4% in assay [7] (Compound Concentration 10.0 uM); -6.9% in assay [4].

Turning to `CCOc1ccc(C[C@H]2NC(=O)CCSSC[C@@H](C(=O)N3CCC[C@H]3C(=O)N[C@@H](CCCN)C(=O)NCC(N)=O)NC(=O)[C@H](CC(N)=O)NC(=O)[C@H]([C@@H](C)O)NC(=O)[C@H]([C@@H](C)CC)NC2=O)cc1` ([Mpa][dY](Et)ITNCP[Orn]G-NH2; disulfide 1-6), the inhibition is 9% in assay [1]; 4.99% in assay [2] (Compound Concentration 10.0 uM); -5.89% in assay [5] (Compound Concentration 10.0 uM); -2.21% in assay [6]; -8.02% in assay [3] (Compound Concentration 10.0 uM).

For `N#Cc1cccc(C(=O)Nc2cc(-c3ccccc3)nn2-c2ccccc2)c1`, the inhibition in assay [1] was 0.764%; in assay [2] (Compound Concentration 10.0 uM), -1.98%; in assay [5] (Compound Concentration 10.0 uM), -2.1%; in assay [6] it was -0.276%; in assay [4] it was -5.93%.
